Measured values published in ChEMBL document CHEMBL3885861, “Open TG-GATES”.

Species on record: Rattus norvegicus
Assay: Open TG-GATES - Regimen: Daily Repeat
Assay type: toxicity, organism-based, Sprague-Dawley
Design: regimen Daily Repeat, gender Male, age 6 weeks
Conditions: in vivo, po, 150 mg/kg, route gavage, dose level High; for APTT / Bas / Eos / Fbg / Hb / Ht / Lym / MCH / MCHC / MCV / Mono / Neu / PT / Plat / RBC / Ret / WBC: tissue Blood; for KIDNEY_L / KIDNEY_R / KIDNEY_TOTAL: tissue Kidney; for LIVER: tissue Liver; for A/G / ALP / ALT / AST / BUN / CRE / Ca / Cl / DBIL / GLC / IP / K / LDH / Na / PL / RALB / TBIL / TC / TG / TP / gamma-GTP: tissue Plasma

SMILES: O=c1ccc2ccccc2o1 [COUMARIN]
- TERMINAL_BW (72 h, time 3 day): 168.7 g
- APTT (72 h, time 3 day): 14.2 s
- Bas (72 h, time 3 day): 0%
- Eos (72 h, time 3 day): 1%
- Fbg (72 h, time 3 day): 193.7 mg/dL
- Hb (72 h, time 3 day): 14.6 g/dL
- Ht (72 h, time 3 day): 43.8%
- Lym (72 h, time 3 day): 80.8%
- MCH (72 h, time 3 day): 21 pg
- MCHC (72 h, time 3 day): 33.2%
- MCV (72 h, time 3 day): 63.2 fL
- Mono (72 h, time 3 day): 4.8%
- Neu (72 h, time 3 day): 13.6%
- PT (72 h, time 3 day): 11.5 s
- Plat (72 h, time 3 day): 117.7 x10_4/uL
- RBC (72 h, time 3 day): 693.6 x10_4/ul
- Ret (72 h, time 3 day): 3.5%
- WBC (72 h, time 3 day): 97.2 x10_2/uL
- KIDNEY_L (72 h, time 3 day): 0.8 g
- KIDNEY_R (72 h, time 3 day): 0.8 g
- KIDNEY_TOTAL (72 h, time 3 day): 1.6 g
- LIVER (72 h, time 3 day): 9.5 g
- A/G (72 h, time 3 day): 2.2
- ALP (72 h, time 3 day): 1111.8 IU/L
- ALT (72 h, time 3 day): 54.6 IU/L
- AST (72 h, time 3 day): 72 IU/L
- BUN (72 h, time 3 day): 16 mg/dL
- CRE (72 h, time 3 day): 0.5 mg/dL
- Ca (72 h, time 3 day): 10.9 mg/dL
- Cl (72 h, time 3 day): 106 meq/L
- DBIL (72 h, time 3 day): 0.072 mg/dL
- GLC (72 h, time 3 day): 178.2 mg/dL
- IP (72 h, time 3 day): 8 mg/dL
- K (72 h, time 3 day): 4.8 meq/L
- LDH (72 h, time 3 day): 162 IU/L
- Na (72 h, time 3 day): 139.6 meq/L
- PL (72 h, time 3 day): 168 mg/dL
- RALB (72 h, time 3 day): 3.8 g/dL
- TBIL (72 h, time 3 day): 0.3 mg/dL
- TC (72 h, time 3 day): 95.2 mg/dL
- TG (72 h, time 3 day): 30.2 mg/dL
- TP (72 h, time 3 day): 5.6 g/dL
- gamma-GTP (72 h, time 3 day): 1.8 IU/L
- TERMINAL_BW ([…], time 7 day): 202.2 g
- TERMINAL_BW ([…], time 14 day): 250.7 g
- TERMINAL_BW ([…], time 28 day): 305.5 g
- APTT ([…], time 7 day): 16.5 s
- Bas ([…], time 7 day): 0%
- Eos ([…], time 7 day): 1%
- Fbg ([…], time 7 day): 236 mg/dL
- Hb ([…], time 7 day): 13.3 g/dL
- Ht ([…], time 7 day): 40.2%
- Lym ([…], time 7 day): 81.2%
- MCH ([…], time 7 day): 20.5 pg
- MCHC ([…], time 7 day): 33%
- MCV ([…], time 7 day): 62.2 fL
- Mono ([…], time 7 day): 3.6%
- Neu ([…], time 7 day): 14.2%
- PT ([…], time 7 day): 11.5 s
- Plat ([…], time 7 day): 121.9 x10_4/uL
- RBC ([…], time 7 day): 646.6 x10_4/ul
- Ret ([…], time 7 day): 5.4%
- WBC ([…], time 7 day): 152.2 x10_2/uL
- APTT ([…], time 14 day): 17.3 s
- Bas ([…], time 14 day): 0%
- Eos ([…], time 14 day): 1%
- Fbg ([…], time 14 day): 238 mg/dL
- Hb ([…], time 14 day): 13.5 g/dL
- Ht ([…], time 14 day): 40.8%
- Lym ([…], time 14 day): 77.6%
- MCH ([…], time 14 day): 20 pg
- MCHC ([…], time 14 day): 33.1%
- MCV ([…], time 14 day): 60.5 fL
- Mono ([…], time 14 day): 7.8%
- Neu ([…], time 14 day): 13.8%
- PT ([…], time 14 day): 11.4 s
- Plat ([…], time 14 day): 129.9 x10_4/uL
- RBC ([…], time 14 day): 674.8 x10_4/ul
- Ret ([…], time 14 day): 5.1%
- WBC ([…], time 14 day): 131.3 x10_2/uL
- APTT ([…], time 28 day): 16.9 s
- Bas ([…], time 28 day): 0%
- Eos ([…], time 28 day): 1.2%
- Fbg ([…], time 28 day): 229.8 mg/dL
- Hb ([…], time 28 day): 14.7 g/dL
- Ht ([…], time 28 day): 44.2%
- Lym ([…], time 28 day): 79.4%
- MCH ([…], time 28 day): 18.4 pg
- MCHC ([…], time 28 day): 33.2%
- MCV ([…], time 28 day): 55.3 fL
- Mono ([…], time 28 day): 5.4%
- Neu ([…], time 28 day): 14.2%
- PT ([…], time 28 day): 11.4 s
- Plat ([…], time 28 day): 120.2 x10_4/uL
- RBC ([…], time 28 day): 800.8 x10_4/ul
- Ret ([…], time 28 day): 2.9%
- WBC ([…], time 28 day): 123.8 x10_2/uL
- KIDNEY_L ([…], time 7 day): 0.9 g
- KIDNEY_R ([…], time 7 day): 0.9 g
- KIDNEY_TOTAL ([…], time 7 day): 1.8 g
- KIDNEY_L ([…], time 14 day): 1.1 g
- KIDNEY_R ([…], time 14 day): 1.1 g
- KIDNEY_TOTAL ([…], time 14 day): 2.2 g
- KIDNEY_L ([…], time 28 day): 1.2 g
- KIDNEY_R ([…], time 28 day): 1.2 g
- KIDNEY_TOTAL ([…], time 28 day): 2.4 g
- LIVER ([…], time 7 day): 11.5 g
- LIVER ([…], time 14 day): 14.4 g
- LIVER ([…], time 28 day): 16.2 g
- A/G ([…], time 7 day): 2
- ALP ([…], time 7 day): 807 IU/L
- ALT ([…], time 7 day): 43.8 IU/L
- AST ([…], time 7 day): 54.4 IU/L
- BUN ([…], time 7 day): 13 mg/dL
- CRE ([…], time 7 day): 0.6 mg/dL
- Ca ([…], time 7 day): 10.9 mg/dL
- Cl ([…], time 7 day): 104.2 meq/L
- DBIL ([…], time 7 day): 0.058 mg/dL
- GLC ([…], time 7 day): 180.2 mg/dL
- IP ([…], time 7 day): 7.2 mg/dL
- K ([…], time 7 day): 4.9 meq/L
- LDH ([…], time 7 day): 181 IU/L
- Na ([…], time 7 day): 139.2 meq/L
- PL ([…], time 7 day): 182.2 mg/dL
- RALB ([…], time 7 day): 4.1 g/dL
- TBIL ([…], time 7 day): 0.2 mg/dL
- TC ([…], time 7 day): 101.4 mg/dL
- TG ([…], time 7 day): 33.4 mg/dL
- TP ([…], time 7 day): 6.2 g/dL
- gamma-GTP ([…], time 7 day): 1.4 IU/L
- A/G ([…], time 14 day): 1.9
- ALP ([…], time 14 day): 789 IU/L
- ALT ([…], time 14 day): 52.8 IU/L
- AST ([…], time 14 day): 62.8 IU/L
- BUN ([…], time 14 day): 16.8 mg/dL
- CRE ([…], time 14 day): 0.6 mg/dL
- Ca ([…], time 14 day): 11 mg/dL
- Cl ([…], time 14 day): 106.4 meq/L
- DBIL ([…], time 14 day): 0.072 mg/dL
- GLC ([…], time 14 day): 181 mg/dL
- IP ([…], time 14 day): 6.8 mg/dL
- K ([…], time 14 day): 4.9 meq/L
- LDH ([…], time 14 day): 188 IU/L
- Na ([…], time 14 day): 139.8 meq/L
- PL ([…], time 14 day): 198.6 mg/dL
- RALB ([…], time 14 day): 4 g/dL
- TBIL ([…], time 14 day): 0.2 mg/dL
- TC ([…], time 14 day): 106.4 mg/dL
- TG ([…], time 14 day): 49.4 mg/dL
- TP ([…], time 14 day): 6.2 g/dL
- gamma-GTP ([…], time 14 day): 1.2 IU/L
- A/G ([…], time 28 day): 1.7
- ALP ([…], time 28 day): 689.6 IU/L
- ALT ([…], time 28 day): 67.2 IU/L
- AST ([…], time 28 day): 63 IU/L
- BUN ([…], time 28 day): 19.6 mg/dL
- CRE ([…], time 28 day): 0.6 mg/dL
- Ca ([…], time 28 day): 11.2 mg/dL
- Cl ([…], time 28 day): 106.6 meq/L
- DBIL ([…], time 28 day): 0.046 mg/dL
- GLC ([…], time 28 day): 177.6 mg/dL
- IP ([…], time 28 day): 6.8 mg/dL
- K ([…], time 28 day): 4.6 meq/L
- LDH ([…], time 28 day): 147.2 IU/L
- Na ([…], time 28 day): 139.2 meq/L
- PL ([…], time 28 day): 222.8 mg/dL
- RALB ([…], time 28 day): 4.4 g/dL
- TBIL ([…], time 28 day): 0.2 mg/dL
- TC ([…], time 28 day): 121.8 mg/dL
- TG ([…], time 28 day): 70.8 mg/dL
- TP ([…], time 28 day): 6.9 g/dL
- gamma-GTP ([…], time 28 day): 0.6 IU/L
